Measured values: patent US11013705B2, “Methods and compositions for supporting renal health” (The Regents of the University of California, priority 2019, dated 2021)
Entries after “also recorded” stand apart in the source; their conditions may differ.

Columns and labels:
Han:SPRD rats [1] = experiment: BHB, citrate and combined BHB-citrate treatment in drinking water of Han:SPRD PKD rats, post-natal weeks 3-8; format: in vivo, rat; details: for dose dependence of benefit on PKD progression: varying concentrations, citrate particularly at the 120 mM dosage
Protocol: To investigate BHB, citrate, and combined BHB and citrate effects on PKD progression, Han:SPRD rats were treated with BHB or a combination of BHB and citrate from post-natal weeks 3-8 in the context of ad libitum feeding with normal, high-carbohydrate chow (NC). In the BHB treatments, BHB was administered as a sodium and potassium salt in the drinking water ad libitum at a dose equivalent to that recommended as a dietary supplement in BHB supplement drinks. In the citrate treatments, citrate was administered as a combination of tripotassium citrate and citric acid at a (0.82/1) ratio at a dose equivalent to that recommended utilized in citrate dietary supplements. Control cohorts received either normal water or water supplemented with the molar equivalents of salt provided in the BHB or BHB-citrate supplements (a mixture of NaCl/KCl). […]

Han:SPRD rats [2] = experiment: Oral BHB treatment in drinking water of juvenile Han:SPRD PKD rats, post-natal weeks 3-8; format: in vivo, rat
Protocol: Han:SPRD rats, a non-orthologous model of PKD with a mutation in Anks6 were placed on a time-restricted feeding (TRF) regime wherein TRF animals had access to food for an 8-h period within their 12-h dark cycle. Animals were treated for 5 weeks from post-natal weeks 3-8. […] Additionally, TRF-treated animals had increased levels of BHB and reduced blood glucose indicative of ketosis. Oral BHB Treatment Prevents Polycystic Disease Progression in Juvenile Rats. To investigate if BHB might affect PKD progression, Han:SPRD rats were treated with BHB from post-natal weeks 3-8 in the context of ad libitum feeding with normal, high-carbohydrate chow (NC). BHB was administered as a sodium and potassium salt in the drinking water ad libitum at a dose equivalent to that recommended as a dietary supplement in BHB supplement drinks. Control cohorts received either normal water or water supplemented with the molar equivalents of salt provided in the BHB supplement (a mixture of NaCl/KCl).

[3] = PKD rats, 5 weeks BHB in drinking water
[4] = PKD rats, 5 weeks BHB in drinking water, normal chow, vs water- and salt-treated controls

| Compound | dose dependence of benefit on PKD progression (Han:SPRD rats [1]) | effect on body weight (Han:SPRD rats [2]; 5 weeks BHB in drinking water) | effect on wild-type kidneys and other organs (Han:SPRD rats [2]; 5 weeks BHB in drinking water) | fibrosis (Han:SPRD rats [2]; [3]) | kidney function (assessed by creatinine) (Han:SPRD rats [2]; [3]) | myofibroblasts (Han:SPRD rats [2]; [3]) | proliferation (Han:SPRD rats [2]; [3]) | 2-kidney to body weight ratio (Han:SPRD rats [2]; [4]) | cystic area (Han:SPRD rats [2]; [4]) | kidneys of PKD animals at the gross and histological level (Han:SPRD rats [2]; after 5 weeks of treatment) | effect on body weight (Han:SPRD rats [1]; 5 weeks in drinking water) | effect on wild-type kidneys and other organs (Han:SPRD rats [1]; 5 weeks in drinking water) | 2-kidney to body weight ratio (Han:SPRD rats [1]; PKD rats, 5 weeks, vs water- and salt-treated controls (FIG. 8A)) | cystic area (Han:SPRD rats [1]; PKD rats, 5 weeks, vs water- and salt-treated controls (FIG. 8B)) | kidneys of PKD animals at the gross and histological level (Han:SPRD rats [1]; after 5 weeks of treatment) |
| --- | --- | --- | --- | --- | --- | --- | --- | --- | --- | --- | --- | --- | --- | --- | --- |
| citrate | dose-dependent therapeutic effects | – | – | – | – | – | – | – | – | – | – | – | – | – | – |
| CC(O)CC(=O)O (stereo not drawn) [BHB, beta-hydroxybutyric acid] | dose-dependent benefits | no effect | Neither wild-type kidneys nor other organs were affected | strong reduction | improved | almost complete elimination; also recorded: almost complete absence | inhibition | striking and unexpected reductions | striking and unexpected reductions | nearly indistinguishable from kidneys of wild-type animals | no effect | Neither wild-type kidneys nor other organs were affected | striking reductions | striking reductions | nearly indistinguishable from kidneys of wild-type animals |
